Assay results published in PubChem BioAssay (NCI).
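Five compound concentrations were applied to cells in 96-well plates for 48 hours; endpoints were derived by simple linear interpolation of the resulting dose-response curve. TGI is the concentration that stops growth completely.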

Key:
Experiment in all cases: DTP human tumour cell line panel, 48 h
786-0 renal = test system: 786-0 renal
A498 renal = test system: A498 renal
A549 NSCLC = test system: A549 NSCLC
ACHN renal = test system: ACHN renal
BT-549 breast = test system: BT-549 breast
CAKI-1 renal = test system: CAKI-1 renal
COLO 205 colon = test system: COLO 205 colon
DU-145 prostate = test system: DU-145 prostate
EKVX NSCLC = test system: EKVX NSCLC
HCC-2998 colon = test system: HCC-2998 colon
HCT-116 colon = test system: HCT-116 colon
HCT-15 colon = test system: HCT-15 colon
HL-60(TB) leukemia = test system: HL-60(TB) leukemia
HOP-62 NSCLC = test system: HOP-62 NSCLC
HOP-92 NSCLC = test system: HOP-92 NSCLC
HS 578T breast = test system: HS 578T breast
HT29 colon = test system: HT29 colon
IGROV1 ovarian = test system: IGROV1 ovarian
K-562 leukemia = test system: K-562 leukemia
KM12 colon = test system: KM12 colon
LOX IMVI melanoma = test system: LOX IMVI melanoma
M14 melanoma = test system: M14 melanoma
MALME-3M melanoma = test system: MALME-3M melanoma
MCF7 breast = test system: MCF7 breast
MDA-MB-231 breast = test system: MDA-MB-231 breast
MDA-MB-435 = test system: MDA-MB-435
MDA-N = test system: MDA-N
MOLT-4 leukemia = test system: MOLT-4 leukemia
NCI-H226 lung = test system: NCI-H226 lung
NCI-H23 lung = test system: NCI-H23 lung
NCI-H460 lung = test system: NCI-H460 lung
NCI-H522 lung = test system: NCI-H522 lung
NCI/ADR-RES ovarian = test system: NCI/ADR-RES ovarian
OVCAR-3 ovarian = test system: OVCAR-3 ovarian
OVCAR-4 ovarian = test system: OVCAR-4 ovarian
OVCAR-5 ovarian = test system: OVCAR-5 ovarian
OVCAR-8 ovarian = test system: OVCAR-8 ovarian
PC-3 prostate = test system: PC-3 prostate
RPMI-8226 leukemia = test system: RPMI-8226 leukemia
RXF 393 renal = test system: RXF 393 renal
SF-268 CNS = test system: SF-268 CNS
SF-295 CNS = test system: SF-295 CNS
SF-539 CNS = test system: SF-539 CNS
SK-MEL-2 melanoma = test system: SK-MEL-2 melanoma
SK-MEL-28 melanoma = test system: SK-MEL-28 melanoma
SK-MEL-5 melanoma = test system: SK-MEL-5 melanoma
SK-OV-3 ovarian = test system: SK-OV-3 ovarian
SN12C renal = test system: SN12C renal
SNB-19 CNS = test system: SNB-19 CNS
SNB-75 CNS = test system: SNB-75 CNS
SR leukemia = test system: SR leukemia
SW-620 colon = test system: SW-620 colon
T-47D breast = test system: T-47D breast
TK-10 renal = test system: TK-10 renal
U251 CNS = test system: U251 CNS
UACC-257 melanoma = test system: UACC-257 melanoma
UACC-62 melanoma = test system: UACC-62 melanoma
UO-31 renal = test system: UO-31 renal
CCRF-CEM leukemia = test system: CCRF-CEM leukemia

Question: With `O=C(/C=C1\C[C@H]2C=Nc3ccccc3C(=O)N2C1)NCCCNC(=O)/C=C1\C[C@H]2C=Nc3ccccc3C(=O)N2C1` as the compound, how does the TGI (786-0 renal) read?
Answer: 10.9 µM

Question: What about the TGI (A498 renal) of the same compound?
Answer: 31.5 µM

Question: And the TGI (A549 NSCLC)?
Answer: 46.5 µM

Question: And the TGI (ACHN renal)?
Answer: 28.1 µM

Question: What about the TGI (BT-549 breast) of the same compound?
Answer: 30.3 µM

Question: And the TGI (CAKI-1 renal)?
Answer: 27.2 µM

Question: And the TGI (COLO 205 colon)?
Answer: 26.2 µM

Question: And the TGI (DU-145 prostate)?
Answer: 35.9 µM

Question: What about the TGI (EKVX NSCLC) of the same compound?
Answer: 38 µM

Question: And the TGI (HCC-2998 colon)?
Answer: 35.1 µM

Question: And the TGI (HCT-116 colon)?
Answer: 30.5 µM

Question: And the TGI (HCT-15 colon)?
Answer: 36.9 µM

Question: And the TGI (HL-60(TB) leukemia)?
Answer: 32 µM

Question: And the TGI (HOP-62 NSCLC)?
Answer: 35.8 µM

Question: And the TGI (HOP-92 NSCLC)?
Answer: 35.4 µM

Question: What about the TGI (HS 578T breast) of the same compound?
Answer: > 100 µM

Question: What about the TGI (HT29 colon) of the same compound?
Answer: 32.2 µM

Question: What about the TGI (IGROV1 ovarian) of the same compound?
Answer: 31 µM

Question: What about the TGI (K-562 leukemia) of the same compound?
Answer: 29.4 µM

Question: And the TGI (KM12 colon)?
Answer: 31.2 µM

Question: And the TGI (LOX IMVI melanoma)?
Answer: 22.6 µM

Question: And the TGI (M14 melanoma)?
Answer: 28 µM

Question: And the TGI (MALME-3M melanoma)?
Answer: 30 µM

Question: What about the TGI (MCF7 breast) of the same compound?
Answer: 42 µM

Question: What about the TGI (MDA-MB-231 breast) of the same compound?
Answer: 29.7 µM

Question: What about the TGI (MDA-MB-435) of the same compound?
Answer: 34.3 µM

Question: What about the TGI (MDA-N) of the same compound?
Answer: 32.3 µM

Question: And the TGI (MOLT-4 leukemia)?
Answer: 7.37 µM

Question: And the TGI (NCI-H226 lung)?
Answer: 36.3 µM

Question: What about the TGI (NCI-H23 lung) of the same compound?
Answer: 30.4 µM

Question: And the TGI (NCI-H460 lung)?
Answer: 36.2 µM

Question: What about the TGI (NCI-H522 lung) of the same compound?
Answer: 4.21 µM

Question: What about the TGI (NCI/ADR-RES ovarian) of the same compound?
Answer: 48.4 µM

Question: And the TGI (OVCAR-3 ovarian)?
Answer: 31.3 µM

Question: What about the TGI (OVCAR-4 ovarian) of the same compound?
Answer: 35.6 µM

Question: And the TGI (OVCAR-5 ovarian)?
Answer: 36.2 µM

Question: And the TGI (OVCAR-8 ovarian)?
Answer: 33.2 µM

Question: What about the TGI (PC-3 prostate) of the same compound?
Answer: 31.4 µM

Question: What about the TGI (RPMI-8226 leukemia) of the same compound?
Answer: 40 µM

Question: And the TGI (RXF 393 renal)?
Answer: 27.9 µM

Question: And the TGI (SF-268 CNS)?
Answer: 30.8 µM

Question: What about the TGI (SF-295 CNS) of the same compound?
Answer: 36.9 µM

Question: What about the TGI (SF-539 CNS) of the same compound?
Answer: 34.9 µM

Question: What about the TGI (SK-MEL-2 melanoma) of the same compound?
Answer: 33.6 µM

Question: And the TGI (SK-MEL-28 melanoma)?
Answer: 35.5 µM

Question: What about the TGI (SK-MEL-5 melanoma) of the same compound?
Answer: 30.2 µM

Question: And the TGI (SK-OV-3 ovarian)?
Answer: 36.4 µM

Question: And the TGI (SN12C renal)?
Answer: 37.9 µM

Question: What about the TGI (SNB-19 CNS) of the same compound?
Answer: 31.4 µM

Question: What about the TGI (SNB-75 CNS) of the same compound?
Answer: 31.1 µM

Question: And the TGI (SR leukemia)?
Answer: 4.62 µM

Question: And the TGI (SW-620 colon)?
Answer: 28.3 µM

Question: What about the TGI (T-47D breast) of the same compound?
Answer: 60.1 µM

Question: And the TGI (TK-10 renal)?
Answer: 34 µM

Question: And the TGI (U251 CNS)?
Answer: 26.6 µM

Question: What about the TGI (UACC-257 melanoma) of the same compound?
Answer: 30.3 µM

Question: And the TGI (UACC-62 melanoma)?
Answer: 29.3 µM

Question: And the TGI (UO-31 renal)?
Answer: 28.4 µM

Question: With `Nc1cc2c(nc3c4ccccc4c(N)cc3[n+]2-c2cccc3ccccc23)c2ccccc12` (tested in a mixture with another compound) as the compound, how does the TGI (786-0 renal) read?
Answer: 4.22 µM

Question: And the TGI (A498 renal)?
Answer: 16.9 µM

Question: What about the TGI (A549 NSCLC) of the same compound?
Answer: 13.3 µM

Question: What about the TGI (ACHN renal) of the same compound?
Answer: 9.21 µM

Question: And the TGI (BT-549 breast)?
Answer: 16.3 µM

Question: And the TGI (CAKI-1 renal)?
Answer: 14.6 µM

Question: And the TGI (CCRF-CEM leukemia)?
Answer: 1.31 µM

Question: And the TGI (COLO 205 colon)?
Answer: 7.14 µM

Question: What about the TGI (DU-145 prostate) of the same compound?
Answer: 15.1 µM

Question: And the TGI (EKVX NSCLC)?
Answer: 18.6 µM

Question: And the TGI (HCT-116 colon)?
Answer: 10.7 µM

Question: And the TGI (HCT-15 colon)?
Answer: 25.9 µM

Question: What about the TGI (HL-60(TB) leukemia) of the same compound?
Answer: 4.53 µM

Question: What about the TGI (HOP-62 NSCLC) of the same compound?
Answer: 17.2 µM

Question: What about the TGI (HOP-92 NSCLC) of the same compound?
Answer: 8.45 µM

Question: What about the TGI (HS 578T breast) of the same compound?
Answer: 12 µM

Question: What about the TGI (HT29 colon) of the same compound?
Answer: 10.9 µM

Question: What about the TGI (IGROV1 ovarian) of the same compound?
Answer: 10.7 µM

Question: What about the TGI (K-562 leukemia) of the same compound?
Answer: 4.17 µM

Question: What about the TGI (KM12 colon) of the same compound?
Answer: 9.87 µM

Question: And the TGI (LOX IMVI melanoma)?
Answer: 7.3 µM

Question: And the TGI (M14 melanoma)?
Answer: 6.61 µM

Question: What about the TGI (MALME-3M melanoma) of the same compound?
Answer: 4.14 µM

Question: And the TGI (MCF7 breast)?
Answer: 3.79 µM

Question: And the TGI (MDA-MB-231 breast)?
Answer: 2.72 µM

Question: And the TGI (MDA-MB-435)?
Answer: 3 µM

Question: What about the TGI (MDA-N) of the same compound?
Answer: 5.27 µM

Question: And the TGI (MOLT-4 leukemia)?
Answer: 4.04 µM

Question: And the TGI (NCI-H226 lung)?
Answer: 28.7 µM

Question: What about the TGI (NCI-H23 lung) of the same compound?
Answer: 4.05 µM

Question: And the TGI (NCI-H460 lung)?
Answer: 1.58 µM

Question: And the TGI (NCI-H522 lung)?
Answer: 7.77 µM

Question: And the TGI (NCI/ADR-RES ovarian)?
Answer: 22.2 µM

Question: What about the TGI (OVCAR-3 ovarian) of the same compound?
Answer: 4.56 µM

Question: And the TGI (OVCAR-4 ovarian)?
Answer: 15.2 µM

Question: And the TGI (OVCAR-5 ovarian)?
Answer: 25.2 µM

Question: And the TGI (OVCAR-8 ovarian)?
Answer: 12.8 µM

Question: What about the TGI (PC-3 prostate) of the same compound?
Answer: 2.9 µM

Question: What about the TGI (RPMI-8226 leukemia) of the same compound?
Answer: 0.851 µM

Question: What about the TGI (RXF 393 renal) of the same compound?
Answer: 9.33 µM

Question: And the TGI (SF-268 CNS)?
Answer: 18.3 µM

Question: And the TGI (SF-295 CNS)?
Answer: 12.4 µM

Question: What about the TGI (SF-539 CNS) of the same compound?
Answer: 23.8 µM

Question: And the TGI (SK-MEL-2 melanoma)?
Answer: 4.28 µM

Question: What about the TGI (SK-MEL-28 melanoma) of the same compound?
Answer: 20 µM

Question: And the TGI (SK-MEL-5 melanoma)?
Answer: 6.17 µM

Question: And the TGI (SK-OV-3 ovarian)?
Answer: 17.9 µM

Question: What about the TGI (SN12C renal) of the same compound?
Answer: 13.8 µM

Question: And the TGI (SNB-19 CNS)?
Answer: 20.2 µM

Question: And the TGI (SNB-75 CNS)?
Answer: 10.6 µM

Question: What about the TGI (SR leukemia) of the same compound?
Answer: 3.56 µM

Question: What about the TGI (SW-620 colon) of the same compound?
Answer: 9.18 µM

Question: What about the TGI (T-47D breast) of the same compound?
Answer: 16.1 µM

Question: And the TGI (TK-10 renal)?
Answer: 4.55 µM

Question: And the TGI (U251 CNS)?
Answer: 2.61 µM

Question: And the TGI (UACC-257 melanoma)?
Answer: 3.51 µM

Question: What about the TGI (UACC-62 melanoma) of the same compound?
Answer: 21.7 µM

Question: What about the TGI (UO-31 renal) of the same compound?
Answer: 15.2 µM
